From ChEMBL document CHEMBL5634092, “Design, synthesis, and biological evaluation of novel HDAC/CD13 dual inhibitors for the treatment of cancer” (Eur J Med Chem, 2023) come the findings set out here.

Bounds are passed on as bounds.

One data set has as its target T1, Aminopeptidase N (Sus scrofa, UniProt P15145).
T1 sequence (P15145 whole entry): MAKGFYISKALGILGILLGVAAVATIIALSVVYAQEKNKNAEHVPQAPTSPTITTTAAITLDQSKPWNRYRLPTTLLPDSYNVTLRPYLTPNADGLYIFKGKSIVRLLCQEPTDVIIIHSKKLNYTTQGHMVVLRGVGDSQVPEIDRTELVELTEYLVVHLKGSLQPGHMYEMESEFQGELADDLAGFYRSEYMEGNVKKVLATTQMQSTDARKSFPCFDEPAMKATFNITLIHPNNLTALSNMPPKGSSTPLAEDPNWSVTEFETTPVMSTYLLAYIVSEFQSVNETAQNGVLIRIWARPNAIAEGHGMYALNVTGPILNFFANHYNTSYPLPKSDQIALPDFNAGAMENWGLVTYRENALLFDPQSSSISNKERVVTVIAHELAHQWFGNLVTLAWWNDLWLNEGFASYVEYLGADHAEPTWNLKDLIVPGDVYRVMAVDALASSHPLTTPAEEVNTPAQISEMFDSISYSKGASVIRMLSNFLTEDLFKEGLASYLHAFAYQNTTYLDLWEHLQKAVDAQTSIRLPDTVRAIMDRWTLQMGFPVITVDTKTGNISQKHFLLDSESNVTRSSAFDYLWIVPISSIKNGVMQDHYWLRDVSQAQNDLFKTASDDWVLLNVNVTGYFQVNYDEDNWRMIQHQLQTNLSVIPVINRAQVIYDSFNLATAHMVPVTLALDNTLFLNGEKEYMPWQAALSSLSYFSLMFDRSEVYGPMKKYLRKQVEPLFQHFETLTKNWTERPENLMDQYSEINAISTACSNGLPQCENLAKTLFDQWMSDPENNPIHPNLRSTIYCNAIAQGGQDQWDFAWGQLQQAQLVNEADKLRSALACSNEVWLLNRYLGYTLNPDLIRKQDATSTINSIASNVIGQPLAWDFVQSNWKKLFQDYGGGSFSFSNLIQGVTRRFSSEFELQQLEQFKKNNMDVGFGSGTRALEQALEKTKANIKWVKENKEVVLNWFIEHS
The data set can be described thus: Inhibition of porcine kidney CD13 using L-leucine-p-nitroanilide as substrate incubated for 30 mins by microplate reader analysis.

Another data set addresses Histone deacetylase 3 (Homo sapiens, UniProt O15379). In words: Inhibition of human HDAC3 using Boc-Lys (acetyl)-AMC as substrate incubated for 1 hr followed by substrate addition and further incubated for 2 hrs by fluorescence assay.
A further data set concerns the target Histone deacetylase 4 (Homo sapiens, UniProt P56524). In words: Inhibition of human HDAC4 using Boc-Lys (tri-fluoroacetyl)-AMC as substrate incubated for 1 hr followed by substrate addition and further incubated for 2 hrs by fluorescence assay.
The next data set concerns the target T2, Histone deacetylase 7 (Homo sapiens, UniProt Q8WUI4).
T2 sequence (Q8WUI4 whole entry): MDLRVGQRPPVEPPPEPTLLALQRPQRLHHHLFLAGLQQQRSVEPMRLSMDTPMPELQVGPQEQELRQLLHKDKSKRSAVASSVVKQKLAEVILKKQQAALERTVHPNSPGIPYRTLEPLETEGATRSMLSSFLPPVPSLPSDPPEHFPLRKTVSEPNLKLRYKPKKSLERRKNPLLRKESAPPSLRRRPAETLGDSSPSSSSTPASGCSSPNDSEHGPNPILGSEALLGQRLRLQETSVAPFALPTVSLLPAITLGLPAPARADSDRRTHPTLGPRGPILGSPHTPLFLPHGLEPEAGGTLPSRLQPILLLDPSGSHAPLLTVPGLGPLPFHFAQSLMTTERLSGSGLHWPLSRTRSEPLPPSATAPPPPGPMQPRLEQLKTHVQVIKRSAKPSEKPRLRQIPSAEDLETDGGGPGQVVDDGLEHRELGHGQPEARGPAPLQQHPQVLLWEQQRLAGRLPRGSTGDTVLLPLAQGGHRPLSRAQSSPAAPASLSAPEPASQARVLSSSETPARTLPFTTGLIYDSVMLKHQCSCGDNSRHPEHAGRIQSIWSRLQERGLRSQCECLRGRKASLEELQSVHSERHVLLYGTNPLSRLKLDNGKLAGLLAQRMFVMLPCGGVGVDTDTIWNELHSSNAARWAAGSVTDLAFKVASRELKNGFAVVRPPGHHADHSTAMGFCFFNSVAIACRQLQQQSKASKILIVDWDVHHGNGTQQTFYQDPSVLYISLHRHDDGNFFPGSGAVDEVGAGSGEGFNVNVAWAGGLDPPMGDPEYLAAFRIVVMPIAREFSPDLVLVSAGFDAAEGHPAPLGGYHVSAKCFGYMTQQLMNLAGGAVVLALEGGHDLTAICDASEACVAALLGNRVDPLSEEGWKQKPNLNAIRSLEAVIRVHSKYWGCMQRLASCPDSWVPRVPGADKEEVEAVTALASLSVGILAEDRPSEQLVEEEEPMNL
In words: Inhibition of human HDAC7 using Boc-Lys (tri-fluoroacetyl)-AMC as substrate incubated for 1 hr followed by substrate addition and further incubated for 2 hrs by fluorescence assay.

The target in the next data set is T3, Histone deacetylase 8 (Homo sapiens, UniProt Q9BY41).
T3 sequence (Q9BY41 whole entry): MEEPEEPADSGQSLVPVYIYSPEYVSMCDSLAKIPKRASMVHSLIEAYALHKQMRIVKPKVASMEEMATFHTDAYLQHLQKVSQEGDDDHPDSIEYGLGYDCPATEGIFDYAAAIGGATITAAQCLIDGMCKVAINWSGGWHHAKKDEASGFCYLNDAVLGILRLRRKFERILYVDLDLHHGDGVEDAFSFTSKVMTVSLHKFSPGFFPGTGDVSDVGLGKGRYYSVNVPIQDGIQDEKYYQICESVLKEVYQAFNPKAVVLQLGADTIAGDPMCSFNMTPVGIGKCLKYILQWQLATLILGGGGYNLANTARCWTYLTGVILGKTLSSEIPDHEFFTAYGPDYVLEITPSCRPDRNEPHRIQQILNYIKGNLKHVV
The data set can be described thus: Inhibition of human HDAC8 using Boc-Lys (tri-fluoroacetyl)-AMC as substrate incubated for 1 hr followed by substrate addition and further incubated for 2 hrs by fluorescence assay.

The target of a further data set is Histone deacetylase 9 (Homo sapiens, UniProt Q9UKV0). The data set can be described thus: Inhibition of human HDAC9 using Boc-Lys (tri-fluoroacetyl)-AMC as substrate incubated for 1 hr followed by substrate addition and further incubated for 2 hrs by fluorescence assay.
Chain of Histone deacetylase 9 (Q9UKV0 whole entry): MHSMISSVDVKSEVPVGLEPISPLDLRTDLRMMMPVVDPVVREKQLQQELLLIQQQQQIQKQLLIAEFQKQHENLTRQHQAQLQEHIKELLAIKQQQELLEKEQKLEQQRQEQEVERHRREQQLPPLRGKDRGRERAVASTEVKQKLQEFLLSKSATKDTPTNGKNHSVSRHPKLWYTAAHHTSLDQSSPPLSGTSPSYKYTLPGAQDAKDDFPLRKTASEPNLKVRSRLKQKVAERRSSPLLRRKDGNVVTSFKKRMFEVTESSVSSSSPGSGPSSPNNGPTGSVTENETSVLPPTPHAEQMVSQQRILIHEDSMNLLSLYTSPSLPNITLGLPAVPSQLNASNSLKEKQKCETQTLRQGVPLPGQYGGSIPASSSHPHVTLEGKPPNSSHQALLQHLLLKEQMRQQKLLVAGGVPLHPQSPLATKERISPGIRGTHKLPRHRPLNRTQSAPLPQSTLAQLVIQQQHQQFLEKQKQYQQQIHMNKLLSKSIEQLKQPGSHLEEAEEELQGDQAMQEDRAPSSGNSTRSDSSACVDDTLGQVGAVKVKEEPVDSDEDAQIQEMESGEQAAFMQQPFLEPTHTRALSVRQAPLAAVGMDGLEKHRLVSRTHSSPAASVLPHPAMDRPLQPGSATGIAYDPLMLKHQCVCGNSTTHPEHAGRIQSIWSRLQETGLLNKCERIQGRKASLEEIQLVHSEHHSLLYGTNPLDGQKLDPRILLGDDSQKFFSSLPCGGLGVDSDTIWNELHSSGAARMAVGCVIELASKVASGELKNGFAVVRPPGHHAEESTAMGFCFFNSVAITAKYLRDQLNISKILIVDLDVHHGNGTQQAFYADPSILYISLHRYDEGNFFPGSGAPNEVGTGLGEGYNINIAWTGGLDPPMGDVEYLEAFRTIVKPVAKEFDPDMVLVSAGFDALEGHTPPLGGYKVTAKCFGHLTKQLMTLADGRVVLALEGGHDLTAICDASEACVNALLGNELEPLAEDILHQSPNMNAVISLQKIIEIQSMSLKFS
Data set [1] in a line: Stability of compound in rat liver homogenate at 0.4 mg/mL measured after 24 hrs by HPLC analysis. Format: ADME, tissue-based. To be noted: tissue homogenate.

Chain of Histone deacetylase 3 (O15379 whole entry): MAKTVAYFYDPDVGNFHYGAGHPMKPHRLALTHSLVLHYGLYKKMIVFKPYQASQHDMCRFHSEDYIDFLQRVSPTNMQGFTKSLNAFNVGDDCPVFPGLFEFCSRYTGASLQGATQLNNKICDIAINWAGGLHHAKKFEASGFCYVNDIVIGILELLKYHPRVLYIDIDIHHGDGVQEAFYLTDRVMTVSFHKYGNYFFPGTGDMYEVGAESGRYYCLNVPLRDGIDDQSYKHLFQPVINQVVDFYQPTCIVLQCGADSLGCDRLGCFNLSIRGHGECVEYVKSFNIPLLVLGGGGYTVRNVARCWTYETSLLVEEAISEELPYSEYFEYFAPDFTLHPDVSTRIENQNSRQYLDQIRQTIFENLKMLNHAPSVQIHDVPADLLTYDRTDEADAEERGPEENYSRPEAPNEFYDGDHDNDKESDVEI
Chain of Histone deacetylase 4 (P56524 whole entry): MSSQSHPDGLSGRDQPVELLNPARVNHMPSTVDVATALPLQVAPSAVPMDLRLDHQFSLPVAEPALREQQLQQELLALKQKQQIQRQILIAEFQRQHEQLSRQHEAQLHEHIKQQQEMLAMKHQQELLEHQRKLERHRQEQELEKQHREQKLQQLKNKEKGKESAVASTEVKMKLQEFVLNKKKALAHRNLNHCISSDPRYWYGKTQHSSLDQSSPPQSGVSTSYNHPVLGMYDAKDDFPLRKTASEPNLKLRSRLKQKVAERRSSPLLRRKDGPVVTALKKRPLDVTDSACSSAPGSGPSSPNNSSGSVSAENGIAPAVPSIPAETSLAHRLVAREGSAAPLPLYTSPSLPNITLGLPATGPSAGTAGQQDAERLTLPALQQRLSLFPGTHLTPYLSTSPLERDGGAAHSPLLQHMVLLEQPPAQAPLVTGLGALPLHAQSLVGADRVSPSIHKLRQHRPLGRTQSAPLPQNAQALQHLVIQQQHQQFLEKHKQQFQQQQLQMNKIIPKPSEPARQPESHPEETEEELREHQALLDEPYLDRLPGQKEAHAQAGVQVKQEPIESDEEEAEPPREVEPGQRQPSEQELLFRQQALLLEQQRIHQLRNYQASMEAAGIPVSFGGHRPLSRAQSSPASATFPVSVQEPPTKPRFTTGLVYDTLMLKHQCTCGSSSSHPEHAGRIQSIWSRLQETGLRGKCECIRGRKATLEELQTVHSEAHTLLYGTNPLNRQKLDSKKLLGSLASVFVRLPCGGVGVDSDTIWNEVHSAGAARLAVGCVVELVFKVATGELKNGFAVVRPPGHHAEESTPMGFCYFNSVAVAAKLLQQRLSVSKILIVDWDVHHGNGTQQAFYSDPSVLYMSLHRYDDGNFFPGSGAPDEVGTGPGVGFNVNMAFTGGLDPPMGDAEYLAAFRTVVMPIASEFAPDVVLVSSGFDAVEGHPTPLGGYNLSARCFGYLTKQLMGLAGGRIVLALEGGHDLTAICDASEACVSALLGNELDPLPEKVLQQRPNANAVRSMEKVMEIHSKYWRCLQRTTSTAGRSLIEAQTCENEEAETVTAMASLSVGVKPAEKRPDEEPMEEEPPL

On to `CCCNNC(=O)c1ccc(CNC(=O)[C@H](CC(C)C)NC(=O)[C@@H](O)[C@H](N)Cc2ccccc2)cc1.Cl`, for which the IC50 (commonly the point on the concentration scale where inhibition reaches its midpoint) was 530 nM against Aminopeptidase N; 20 nM at Histone deacetylase 3; above 10 µM at Histone deacetylase 4; above 10 µM against Histone deacetylase 7; 4.65 µM at Histone deacetylase 8; above 10 µM at Histone deacetylase 9. Besides, the Stability entry in data set [1] is listed as “Stable”.
